Reference: patent publication US20070207946A1, “Dipeptidyl peptidase IV inhibitors and their uses for lowering blood pressure levels” (priority 2001, published 2007)
Read-outs that look alike come from different tables or passages of the source. Square brackets hold non-standard residues; d marks the D form. Peptide text beside a SMILES is read from it. * marks the point of attachment. pY = N[C@@H](Cc1ccc(OP(=O)(O)O)cc1)C(=O)O; aIle = CC[C@@H](C)[C@H](N)C(=O)O; Aoc(2) = CCCCCC[C@H](N)C(=O)O; Tle = CC(C)(C)[C@H](N)C(=O)O; Orn = NCCC[C@H](N)C(=O)O; Aze = O=C(O)[C@@H]1CCN1; Nva = CCC[C@H](N)C(=O)O; Abu = CC[C@H](N)C(=O)O; Bn = c1ccc(C*)cc1

Legend:
[1] = target: T1, dipeptidyl peptidase IV from porcine kidney (Sus scrofa, UniProt P22411); assay: Ki determination of DPIV inhibition; format: biochemical; conditions: substrate glycylprolyl-4-nitroaniline, HEPES pH7.6, 30° C.
T1 construct: dipeptidyl peptidase IV from porcine kidney; from tissue; host or cells: porcine kidney

purified porcine DPIV = purified porcine DPIV (Sus scrofa, UniProt P22411); assay: Determination of IC50 values (DPIV, Gly-Pro-pNA); format: biochemical; conditions: Gly-Pro-pNA 0.4 mM, HEPES pH7.6, 30° C.
Description: 100 μl inhibitor stock solution were mixed with 100 μl buffer (HEPES pH7.6) and 50 μl substrate (Gly-Pro-pNA, final concentration 0.4 mM) and preincubated at 30° C. Reaction was started by addition of 20 μl purified porcine DPIV. Formation of the product pNA was measured at 405 nm over 10 min using the HTS 7000Plus plate reader (Perkin Elmer) and slopes were calculated. The final inhibitor concentrations ranged between 1 mM and 30 nM. For calculation of IC50 GraFit 4.0.13 (Erithacus Software) was used.

plasma DPIV activity = target: T2, plasma DPIV activity (Rattus norvegicus, UniProt P14740); assay: DPIV inhibiting activity after intravasal and oral administration to Wistar rats; format: in vivo; conditions: for in vivo DPIV-inhibition at tmax, i.v. / in vivo DPIV-inhibition at tmax, p.o.: dose 100 mg/kg; for inhibition at 100 mg/kg: rat
T2 construct: from tissue; host or cells: plasma of Wistar rats
Description: Male Wistar rats (Shoe: Wist(Sho)) with a body weight ranging between 250 and 350 g were purchased from Tierzucht Schönwalde (Schönwalde, Germany).
Animals were single-caged under conventional conditions with controlled temperature (22±2° C.) on a 12/12 hours light/dark cycle (light on at 06:00 AM). Standard pelleted chow (ssniff® Soest, Germany) and tap water acidified with HCl were allowed ad libitum.
After ≧one week of adaptation at the housing conditions, catheters were implanted into the carotid artery of Wistar rats under general anaesthesia (i.p. injection of 0.25 ml/kg b.w. Rompun® [2%], BayerVital, Germany and 0.5 ml/kg b.w. Ketamin 10, Atarost GmbH & Co., Twistringen, Germany). The animals were allowed to recover for one week. The catheters were flushed with heparin-saline (100 IU/ml) three times per week. In case of catheter dysfunction, a second catheter was inserted into the contra-lateral carotid artery of the respective rat. After one week of recovery from surgery, this animal was reintegrated into the study. In case of dysfunction of the second catheter, the animal was withdrawn from the study. A new animal was recruited and the experiments were continued in the planned sequence, beginning at least 7 days after catheter implantation.
After overnight fasting, 100 μl samples of heparinised arterial blood were collected at −30, −5, and 0 min. […] In the case of oral administration, an additional volume of 1 ml saline was injected into the arterial catheter. In the case of infra-arterial administration, the catheter was immediately flushed with 30 μl saline and an additional 1 ml of saline was given orally via the feeding tube.
All blood samples were collected into ice cooled Eppendorf tubes (Eppendorf-Netheler-Hinz, Hamburg, Germany) filled with 10 μl 1M sodium citrate buffer (pH 3.0) for plasma DPIV activity measurement. Eppendorf tubes were centrifuged immediately (12000 rpm for 2 min, Hettich Zentrifuge EBA 12, Tuttlingen; Germany): The plasma fractions were stored on ice until analysis or were frozen at −20° C. until analysis. All plasma samples were labelled with the following data:
The assay mixture for determination of plasma DPIV activity consisted of 80 μl reagent and 20 μl plasma sample. […] The DPIV activity was expressed in mU/ml.
All parameters were analysed in a descriptive manner including mean and SD.

PepT1 [2] = target: T3, PepT1 (Oryctolagus cuniculus, UniProt P36836); assay: Inhibition of binding of 3H-D-Phe-Ala to PepT1-expressing P. pastoris cells; conditions: read-out: EC50: concentration inhibiting the binding of 3H-D-Phe-Ala to PepT1-expressing P. pastoris cells by 50%
T3 sequence (P36836 1-707): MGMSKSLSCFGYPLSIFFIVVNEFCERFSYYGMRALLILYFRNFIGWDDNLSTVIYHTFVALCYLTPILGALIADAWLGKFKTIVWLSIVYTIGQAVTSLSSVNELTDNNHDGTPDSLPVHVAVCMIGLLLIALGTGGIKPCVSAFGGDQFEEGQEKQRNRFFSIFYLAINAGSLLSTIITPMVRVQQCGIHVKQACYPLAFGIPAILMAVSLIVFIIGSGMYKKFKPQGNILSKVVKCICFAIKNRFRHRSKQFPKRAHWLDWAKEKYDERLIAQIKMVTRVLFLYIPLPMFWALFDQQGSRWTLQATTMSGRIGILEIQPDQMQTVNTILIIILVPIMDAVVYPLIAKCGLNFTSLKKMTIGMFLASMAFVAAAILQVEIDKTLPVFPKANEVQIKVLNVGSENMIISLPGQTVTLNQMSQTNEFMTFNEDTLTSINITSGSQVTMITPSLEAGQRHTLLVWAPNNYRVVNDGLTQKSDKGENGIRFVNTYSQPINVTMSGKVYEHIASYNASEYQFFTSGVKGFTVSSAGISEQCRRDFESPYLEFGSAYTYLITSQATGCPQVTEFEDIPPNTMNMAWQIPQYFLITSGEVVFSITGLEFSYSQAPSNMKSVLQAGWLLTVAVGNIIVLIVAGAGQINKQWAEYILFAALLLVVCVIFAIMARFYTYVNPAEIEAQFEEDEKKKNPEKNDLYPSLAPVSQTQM
Description: (§1) Side chain-modified glutamyl thiazolidines having a structure H-Glu(X)-Thia were synthesised, with polyethylene glycol or glycine oligomers of various chain lengths being used as X (see Method A of example for description of synthesis). The binding characteristics of those derivatives and their transportability by the peptide transporter PepT1 were investigated.

PepT1 [3] = target: T3, PepT1; assay: Transport characteristics at PepT1-expressing oocytes of X. leavis, two-electrode voltage clamp; format: cell-based
Description: as §1

F344 rats = assay: Chronic intragastric infusion via osmotic minipumps over two weeks - blood pressure; format: in vivo, rat
Description: Reduced expression of the ectopeptidase DPIV and lack of DPIV-like activity in mutant F344 rats lacking DPIV enzymic activity and expression results in a lowered blood pressure. Mutant F344 substrains lacking DPIV enzymic activity and wild-type-like F344 were tested.

[4] = intra-vasal (intra-arterial) route

purified porcine DPIV, sequence (P22411 whole entry): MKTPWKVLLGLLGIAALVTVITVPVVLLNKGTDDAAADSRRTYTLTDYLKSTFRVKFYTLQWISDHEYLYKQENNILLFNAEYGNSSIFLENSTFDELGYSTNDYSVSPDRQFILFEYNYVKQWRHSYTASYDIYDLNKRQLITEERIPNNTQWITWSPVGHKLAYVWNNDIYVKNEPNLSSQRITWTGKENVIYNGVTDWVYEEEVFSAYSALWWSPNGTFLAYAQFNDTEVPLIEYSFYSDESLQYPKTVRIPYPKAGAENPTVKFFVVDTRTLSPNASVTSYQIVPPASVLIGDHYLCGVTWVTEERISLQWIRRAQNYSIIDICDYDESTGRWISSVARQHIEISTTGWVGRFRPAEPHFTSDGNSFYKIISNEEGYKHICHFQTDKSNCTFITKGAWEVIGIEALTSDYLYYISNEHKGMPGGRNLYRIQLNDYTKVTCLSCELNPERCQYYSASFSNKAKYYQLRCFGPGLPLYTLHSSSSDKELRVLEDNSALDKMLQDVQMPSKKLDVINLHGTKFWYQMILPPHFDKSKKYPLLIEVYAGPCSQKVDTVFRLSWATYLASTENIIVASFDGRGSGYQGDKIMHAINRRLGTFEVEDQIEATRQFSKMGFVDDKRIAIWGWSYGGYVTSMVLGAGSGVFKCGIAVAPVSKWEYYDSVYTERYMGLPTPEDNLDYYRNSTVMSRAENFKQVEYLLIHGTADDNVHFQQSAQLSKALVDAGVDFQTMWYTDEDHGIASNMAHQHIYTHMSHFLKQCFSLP
T1 sequence (P22411 whole entry): as above
T2 sequence (P14740 38-767 limits assumed): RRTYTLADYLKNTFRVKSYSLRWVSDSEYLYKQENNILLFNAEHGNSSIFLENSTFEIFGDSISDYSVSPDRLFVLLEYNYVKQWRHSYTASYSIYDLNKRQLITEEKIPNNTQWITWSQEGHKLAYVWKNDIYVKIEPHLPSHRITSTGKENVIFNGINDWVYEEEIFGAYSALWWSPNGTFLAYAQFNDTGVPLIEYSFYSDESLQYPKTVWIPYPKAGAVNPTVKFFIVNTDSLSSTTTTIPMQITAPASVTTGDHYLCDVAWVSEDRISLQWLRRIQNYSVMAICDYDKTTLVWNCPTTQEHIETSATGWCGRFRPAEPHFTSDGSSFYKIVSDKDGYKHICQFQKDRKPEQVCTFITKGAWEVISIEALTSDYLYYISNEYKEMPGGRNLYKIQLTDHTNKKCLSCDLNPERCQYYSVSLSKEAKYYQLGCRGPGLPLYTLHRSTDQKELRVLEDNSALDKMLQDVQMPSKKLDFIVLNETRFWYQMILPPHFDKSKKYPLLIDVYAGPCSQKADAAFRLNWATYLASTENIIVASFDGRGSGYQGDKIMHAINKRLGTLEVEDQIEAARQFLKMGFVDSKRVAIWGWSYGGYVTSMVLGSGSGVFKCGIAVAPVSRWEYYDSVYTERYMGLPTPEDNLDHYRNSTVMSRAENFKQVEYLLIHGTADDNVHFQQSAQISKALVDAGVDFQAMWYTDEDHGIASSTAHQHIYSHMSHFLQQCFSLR

Compound | Ki [1] [µM] | IC50 (purified porcine DPIV) [µM] | further results
CCCCCC[C@H](N)C(=O)N1CCC[C@H]1C(=O)N[C@H](C(=O)O)[C@@H](C)CC [AOA-Pro-Ile, 2-Amino octanoic acid-Pro-Ile] (H-[Aoc(2)]-Pro-Ile-OH) | 12.6 | – | –
CC[C@H](N)C(=O)N1CCC[C@H]1C(=O)N[C@H](C(=O)O)[C@@H](C)CC [Abu-Pro-Ile] (H-[Abu]-Pro-Ile-OH; N-terminus and C-terminus assumed) | – | 34.3 | –
Br.CC(=O)OCC(=O)[C@@H]1CCCN1C(=O)[C@@H](NC(=O)[C@H](C)N)C(C)C [Ala-Val-Pro-acyloxy methyl ketone, H-Ala-Val-Pro-CH2O—C(O)CH3*HBr] | – | – | in vivo DPIV-inhibition at tmax, i.v. (plasma DPIV activity; [4]): 89%; in vivo DPIV-inhibition at tmax, p.o. (plasma DPIV activity; oral): 86%
Br.CC(C)[C@H](NC(=O)[C@H](C)N)C(=O)N1CCC[C@H]1C(=O)COC(=O)c1ccccc1 [Ala-Val-Pro-benzoyl-methyl ketone, H-Ala-Val-Pro-CH2O—C(O)Ph*HBr] | – | – | in vivo DPIV-inhibition at tmax, i.v. (plasma DPIV activity; [4]): 97%; in vivo DPIV-inhibition at tmax, p.o. (plasma DPIV activity; oral): 76%
CC[C@H](C)[C@H](NC(=O)[C@@H]1CCCN1C(=O)[C@@H]1CCN1)C(=O)O [Aze-Pro-Ile] (H-[Aze]-Pro-Ile-OH; N-terminus and C-terminus assumed) | – | 72.8 | –
NC(CC(=O)O)C(=O)N1CCCC1 (stereo not drawn) [H-Asp-pyrrolidine] | 14 | – | –
N[C@@H](CCC(=O)NO)C(=O)N1CCSC1 [H-Glu(NHOH)-thiazolidine] | 1.7 | – | EC50 (PepT1 [2]): 3180 µM; Imax, inward currents generated by the transport (PepT1 [3]): 42 ± 11 nA
N[C@@H](CCC(=O)O)C(=O)N1CCSC1 [H-Glu-thiazolidine] | – | – | Imax, inward currents generated by the transport (PepT1 [3]): 35 ± 13 nA
NC(Cc1c[nH]cn1)C(=O)N1CCCC1 (stereo not drawn) [H-His-pyrrolidine] | 35 | – | –
CCC(C)C(N)C(=O)N1CC1 (stereo not drawn) [H-Ile-azididine] | 3.1 | – | –
CC[C@@H](C)[C@H](NC(=O)[C@@H]1CCCN1C(=O)[C@@H](N)[C@@H](C)CC)C(=O)O [Ile-Pro-allo-Ile] | 5.22 | – | –
CC[C@H](C)[C@H](N)C(=O)N1CCC[C@H]1C(=O)N[C@H](C(=O)O)C(C)(C)C [Ile-Pro-t-butyl-Gly] (H-Ile-Pro-[Tle]-OH; N-terminus and C-terminus assumed) | 18.9 | 82.3 | –
CCC(C)C(N)C(=O)C1CCCCC1 (stereo not drawn) [Ile-cyclohexyl ketone] | 56.8 | 293 | –
CCC(C)C(N)C(=O)C1CCCC1 (stereo not drawn) [Ile-cyclopentyl ketone, 1-cyclopentyl-3-methyl-1-oxo-2-pentanaminium chloride] | – | – | inhibition at 100 mg/kg (plasma DPIV activity; iv, intra-vasal (intra-arterial) route, read-out: in vivo DPIV-inhibition at tmax, i.v.): 34%; inhibition at 100 mg/kg (plasma DPIV activity; oral, read-out: in vivo DPIV-inhibition at tmax, p.o.): 15%
CCC[C@H](N)C(=O)N1CCC[C@H]1C(=O)N[C@H](C(=O)O)[C@@H](C)CC [Nva-Pro-Ile] (H-[Nva]-Pro-Ile-OH; N-terminus and C-terminus assumed) | 6.17 | 24.9 | –
CC[C@H](C)[C@H](NC(=O)[C@@H]1CCCN1C(=O)[C@@H](N)CCCN)C(=O)O [Orn-Pro-Ile] (H-[Orn]-Pro-Ile-OH; N-terminus and C-terminus assumed) | – | 216 | –

Compound | Ki [1] [µM] | IC50 (purified porcine DPIV) [µM] | further results
CC[C@H](C)[C@H](NC(=O)[C@@H]1CCCN1C(=O)[C@@H](N)COCc1ccccc1)C(=O)O [Ser(Bzl)-Pro-Ile] (H-Ser(Bn)-Pro-Ile-OH; N-terminus and C-terminus assumed) | 21.6 | 67.8 | –
CC[C@H](C)[C@H](NC(=O)[C@@H]1CCCN1C(=O)[C@@H](N)Cc1ccc(OP(=O)(O)O)cc1)C(=O)O [Tyr(P)-Pro-Ile] (H-[pY]-Pro-Ile-OH; N-terminus and C-terminus assumed) | – | – | in vivo DPIV-inhibition at tmax, p.o. (plasma DPIV activity; oral): no inhibition
CC[C@@H](C)[C@H](NC(=O)[C@@H]1CCCN1C(=O)[C@@H](N)Cc1ccc(O)cc1)C(=O)O [Tyr-Pro-allo-Ile] (H-Tyr-Pro-[aIle]-OH; N-terminus and C-terminus assumed) | 18.2 | 64.1 | –
CC[C@@H](C)[C@H](NC(=O)[C@@H]1CCCN1C(=O)[C@@H](N)C(C)C)C(=O)O [Val-Pro-allo-Ile] | 9.54 | – | –
CC(=O)C1CCCN1C(=O)C(N)C(C)C (stereo not drawn) [Val-Pro-methyl ketone] | 0.0476 | 0.579 | –
CC(C)C(N)C(=O)C1CCCC1 (stereo not drawn) [Val-cyclopentyl ketone] | 13.1 | 49 | –
CC[C@H](C)[C@H](N)C(=O)N1CCCC1C#N.O=C(O)C(F)(F)F (stereo partly drawn) [isoleucyl cyano pyrrolidine TFA] | – | – | blood pressure (F344 rats): dose-dependently reduced
CC(C)[C@@H](NC(=O)[C@@H]1CCCN1C(=O)[C@@H](N)C(C)(C)C)C(=O)O [t-butyl-Gly-Pro-D-Val] (H-[Tle]-Pro-[dV]-OH; N-terminus and C-terminus assumed) | – | 112 | –
CC(C)[C@H](NC(=O)[C@@H]1CCCN1C(=O)[C@@H](N)C(C)(C)C)C(=O)O [t-butyl-Gly-Pro-Val] (H-[Tle]-Pro-Val-OH; N-terminus and C-terminus assumed) | 3.08 | – | –
CC(C)(C)C(N)C(=O)C1CCCCC1 (stereo not drawn) [t-butyl-Gly-cyclohexyl ketone] | 273 | 273 | –
H-Glu(PEG)-Thia | 3.11 | – | EC50 (PepT1 [2]): > 10000 µM
Val-Pro-acyloxy methyl ketone | 0.00105 | 0.0102 | –
Val-Pro-benzothiazol methyl ketone | 0.0373 | 0.138 | –
Val-Pro-benzoyl methyl ketone | 0.000536 | 0.0179 | –
Val-cyclohexyl ketone | – | 1000 | –
